≈ marks a conversion by molar mass, not a printed value.

Holding throughout (assay type): cell-based
The test system of one experiment is Escherichia coli SOL 90. In words: MIC, in vitro dilution method, Escherichia coli SOL 90 (Table III). Particulars: SOL90; Escherichia coli SOL 90; dilution method; read-out: MIC. Summed up:
(§1)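 In vitro dilution method, Gram-negative strain panel; read-out = minimum inhibiting concentration, μg/ml.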

The test system of a further experiment is Enterobacter RO 154. In words: MIC, in vitro dilution method, Enterobacter RO 154 (Table III). Particulars: RO154; Enterobacter RO 154; dilution method; read-out: MIC. A digest of the protocol:
as §1

Another experiment deals with Klebsiella RO 30. Briefly: MIC, in vitro dilution method, Klebsiella RO 30 (Table III). The settings on record: RO30; Klebsiella RO 30; dilution method; read-out: MIC. Summed up:
as §1

Experiment [1] relates to Proteus vulgaris RL 99 bis. Briefly: MIC, in vitro dilution method, Proteus vulgaris RL 99 bis (Table III). Particulars: RL99BIS; Proteus vulgaris RL 99 bis; dilution method; read-out: MIC. An excerpt: (§2) The products of the invention have been studied as regards their pharmacological properties and, more especially, bacteriostatic action. This has been determined in vitro by the dilution method, and the study was on Gram negative strains.
(§3) Results, expressed in minimum inhibiting concentrations (MIC-- μg/ml), are collected in the following table (Table III).

The test system of another experiment is Serratia RL 72. Briefly: MIC, in vitro dilution method, Serratia RL 72 (Table III). Particulars: RL72.
Excerpt: as §2, §3

For a further experiment, the system named is Escherichia coli 255. Briefly: MIC on beta-lactamase producing strain Escherichia coli 255 (Table IV). The settings on record: Escherichia coli 255, producing beta-lactamases; read-out: MIC. On the procedure: (§4) To evaluate the stability of these products towards beta-lactamases, their MIC was determined on isogenic strains producing and not producing beta-lactamases.
(§5) The results are expressed in μg/ml in Table IV.

Experiment [2] deals with Serrtia liquefaciens SL/326 A. In words: MIC on beta-lactamase producing strain Serratia liquefaciens SL/326 A (Table IV). How it is done: as §4, §5
In experiment [3] the test system is Serrtia liquefaciens SL 1326 S. In words: MIC on strain not producing beta-lactamase, Serratia liquefaciens SL 1326 S (Table IV). The settings on record: SL1326S, not producing beta-lactamases. On the procedure: as §4, §5
The test system of experiment [4] is Proteus vulgaris GN 76/C.1. In words: MIC on beta-lactamase producing strain Proteus vulgaris GN 76/C.1 (Table IV). Particulars: GN76; Proteus vulgaris GN 76/C.1, producing beta-lactamases; read-out: MIC. How it is done:
as §4, §5

A further experiment deals with Escherichia coli 255/L.7. In words: MIC on strain not producing beta-lactamase, Escherichia coli 255/L.7 (Table IV). The settings on record: Escherichia coli 255/L.7 *, not producing beta-lactamases; read-out: MIC. On the procedure:
as §4, §5

A further experiment deals with Pseudomonas RL 112. Briefly: MIC, in vitro dilution method, Pseudomonas RL 112 (Table III). Particulars: RL112. Summed up: as §1
In the next experiment the test system is Citrobacter RL 49. Briefly: MIC, in vitro dilution method, Citrobacter RL 49 (Table III). The settings on record: RL49; Citrobacter RL 49; dilution method; read-out: MIC.
Excerpt: as §2, §3

For `CC(C)(ON=C(C(=O)NC1C(=O)N2C(C(=O)O)=C(CSC(=O)C3CCCNC3)C[S+]([O-])C12)c1csc(N)n1)C(=O)O` (centres unmarked) [compound 42074], the MIC in the experiment with Escherichia coli SOL 90 is 1 µg/mL (≈ 1.59 µM); in the experiment on Enterobacter RO 154, 8 µg/mL (≈ 12.7 µM); with Klebsiella RO 30, 0.5 µg/mL (≈ 0.795 µM); in experiment [1] it was 0.5 µg/mL (≈ 0.795 µM); against Serratia RL 72, 4 µg/mL (≈ 6.36 µM); in the experiment with Escherichia coli 255, 0.5 µg/mL (≈ 0.795 µM). Also, the minimum inhibitory concentration (MIC) turned out to be 0.25 µg/mL (≈ 0.398 µM) in experiment [2]; 0.12 µg/mL (≈ 0.191 µM) in [3]; 0.5 µg/mL (≈ 0.795 µM) in experiment [4]; 0.25 µg/mL (≈ 0.398 µM) in the experiment on Escherichia coli 255/L.7; 8 µg/mL (≈ 12.7 µM) against Pseudomonas RL 112; 0.5 µg/mL (≈ 0.795 µM) in the experiment on Citrobacter RL 49.
In the case of `CC(C)(O/N=C(\C(=O)NC1C(=O)N2C(C(=O)O)=C(COC(=O)C3(N)CCCC3)C[S+]([O-])C12)c1csc(N)n1)C(=O)O` (centres unmarked) [41 975], the minimum inhibitory concentration (MIC) stood at 0.25 µg/mL (≈ 0.408 µM) with Escherichia coli SOL 90; 8 µg/mL (≈ 13.1 µM) in the experiment with Enterobacter RO 154; 0.5 µg/mL (≈ 0.816 µM) in the experiment with Klebsiella RO 30; 0.5 µg/mL (≈ 0.816 µM) in experiment [1]; 4 µg/mL (≈ 6.53 µM) with Serratia RL 72; 0.5 µg/mL (≈ 0.816 µM) in the experiment on Escherichia coli 255. Further, the minimal inhibitory concentration (MIC) in experiment [2] is 0.25 µg/mL (≈ 0.408 µM); in experiment [3], no more than 0.12 µg/mL; in [4] it was 0.5 µg/mL (≈ 0.816 µM); in the experiment with Escherichia coli 255/L.7, 0.5 µg/mL (≈ 0.816 µM); against Pseudomonas RL 112, 8 µg/mL (≈ 13.1 µM); with Citrobacter RL 49, 0.5 µg/mL (≈ 0.816 µM).
As to `CC(N)CC(=O)OCC1=C(C(=O)O)N2C(=O)C(NC(=O)C(=NOC(C)(C)C(=O)O)c3csc(N)n3)C2[S+]([O-])C1` (centres unmarked) [42 024], the MIC was 0.5 µg/mL (≈ 0.852 µM) in the experiment on Escherichia coli SOL 90; 2 µg/mL (≈ 3.41 µM) in the experiment on Enterobacter RO 154; 0.25 µg/mL (≈ 0.426 µM) in the experiment with Klebsiella RO 30; 0.25 µg/mL (≈ 0.426 µM) in experiment [1]; 0.5 µg/mL (≈ 0.852 µM) in the experiment on Serratia RL 72; 0.25 µg/mL (≈ 0.426 µM) in the experiment with Escherichia coli 255. Besides, the minimum inhibitory concentration (MIC) is 0.25 µg/mL (≈ 0.426 µM) in experiment [2]; 0.06 µg/mL (≈ 0.102 µM) in experiment [3]; 0.25 µg/mL (≈ 0.426 µM) in [4]; no more than 0.12 µg/mL in the experiment with Escherichia coli 255/L.7; 4 µg/mL (≈ 6.82 µM) in the experiment with Pseudomonas RL 112; 0.5 µg/mL (≈ 0.852 µM) in the experiment with Citrobacter RL 49.
Consider `CC(N)CCC(=O)OCC1=C(C(=O)O)N2C(=O)C(NC(=O)C(=NOC(C)(C)C(=O)O)c3csc(N)n3)C2[S+]([O-])C1` (centres unmarked) [42 027], for which the MIC was 0.25 µg/mL (≈ 0.416 µM) in the experiment on Escherichia coli SOL 90; 2 µg/mL (≈ 3.33 µM) with Enterobacter RO 154; 0.25 µg/mL (≈ 0.416 µM) in the experiment on Klebsiella RO 30; no more than 0.12 µg/mL in experiment [1]; 0.5 µg/mL (≈ 0.832 µM) against Serratia RL 72; 0.12 µg/mL (≈ 0.2 µM) in the experiment on Escherichia coli 255. In addition, the MIC is 0.25 µg/mL (≈ 0.416 µM) in experiment [2]; no more than 0.06 µg/mL in experiment [3]; 0.12 µg/mL (≈ 0.2 µM) in [4]; 0.06 µg/mL (≈ 0.0999 µM) in the experiment on Escherichia coli 255/L.7; 4 µg/mL (≈ 6.66 µM) in the experiment on Pseudomonas RL 112; 0.25 µg/mL (≈ 0.416 µM) in the experiment with Citrobacter RL 49.
`CCNCc1ccc(C(=O)OCC2=C(C(=O)O)N3C(=O)C(NC(=O)/C(=N\OC(C)(C)C(=O)O)c4csc(N)n4)C3[S+]([O-])C2)cc1` (centres unmarked) [42 396]: the MIC was no more than 0.125 µg/mL in the experiment with Escherichia coli SOL 90; no more than 0.125 µg/mL in the experiment with Enterobacter RO 154; no more than 0.125 µg/mL in the experiment on Klebsiella RO 30; no more than 0.125 µg/mL in [1]; 1 µg/mL (≈ 1.51 µM) against Serratia RL 72; 8 µg/mL (≈ 12.1 µM) in the experiment with Pseudomonas RL 112. For the same molecule, the minimal inhibitory concentration (MIC) in the experiment on Citrobacter RL 49 was no more than 0.125 µg/mL.
As for `Cc1cc(C)c(C(=O)OCC2=C(C(=O)O)N3C(=O)C(NC(=O)C(=NOC4(C(=O)O)CCC4)c4csc(N)n4)C3[S+]([O-])C2)c(C)c1CN` (centres unmarked) [42 542], the MIC was 0.5 µg/mL (≈ 0.726 µM) with Escherichia coli SOL 90; 0.5 µg/mL (≈ 0.726 µM) in the experiment with Enterobacter RO 154; no more than 0.25 µg/mL in the experiment on Klebsiella RO 30; no more than 0.125 µg/mL in experiment [1]; 0.5 µg/mL (≈ 0.726 µM) with Serratia RL 72; 8 µg/mL (≈ 11.6 µM) in the experiment with Pseudomonas RL 112. Moreover, the MIC in the experiment with Citrobacter RL 49 turned out to be 0.5 µg/mL (≈ 0.726 µM).
Turning to `Nc1nc(/C(=N/OC2(C(=O)O)CCC2)C(=O)NC2C(=O)N3C(C(=O)O)=C(COC(=O)CC4CCCCN4)C[S+]([O-])C23)cs1` (centres unmarked) [42 471], the MIC is 0.5 µg/mL (≈ 0.783 µM) in the experiment on Escherichia coli SOL 90; 0.25 µg/mL (≈ 0.391 µM) with Enterobacter RO 154; 0.25 µg/mL (≈ 0.391 µM) with Klebsiella RO 30; no more than 0.125 µg/mL in [1]; 0.5 µg/mL (≈ 0.783 µM) in the experiment on Serratia RL 72; 8 µg/mL (≈ 12.5 µM) against Pseudomonas RL 112. For the same molecule, in the experiment with Citrobacter RL 49, the MIC was 0.25 µg/mL (≈ 0.391 µM).
As to `NC[C@H]1CC[C@H](C(=O)OCC2=C(C(=O)O)N3C(=O)C(NC(=O)/C(=N\OCC(=O)O)c4csc(N)n4)C3[S+]([O-])C2)CC1` (some centres unmarked) [42 211], the minimum inhibitory concentration (MIC) in the experiment with Escherichia coli SOL 90 is no more than 0.12 µg/mL; with Enterobacter RO 154 it was no more than 0.12 µg/mL; in the experiment on Klebsiella RO 30, no more than 0.12 µg/mL; in [1] it was no more than 0.12 µg/mL; with Serratia RL 72, no more than 0.12 µg/mL; against Pseudomonas RL 112, 64 µg/mL (≈ 104 µM). Moreover, the minimal inhibitory concentration (MIC) in the experiment on Citrobacter RL 49 was no more than 0.12 µg/mL.
In the case of `CNCc1ccc(C(=O)SCC2=C(C(=O)O)N3C(=O)C(NC(=O)C(=NOC4(C(=O)O)CCC4)c4csc(N)n4)C3[S+]([O-])C2)cc1` (centres unmarked) [compound 42534], the MIC in the experiment on Escherichia coli SOL 90 is 0.5 µg/mL (≈ 0.739 µM); with Enterobacter RO 154 it was 0.5 µg/mL (≈ 0.739 µM); in the experiment on Klebsiella RO 30 it was 0.25 µg/mL (≈ 0.369 µM); in experiment [1] it was no more than 0.125 µg/mL; against Serratia RL 72, 1 µg/mL (≈ 1.48 µM); against Pseudomonas RL 112 it was 8 µg/mL (≈ 11.8 µM). Also, in the experiment on Citrobacter RL 49, the minimum inhibitory concentration (MIC) turned out to be 0.25 µg/mL (≈ 0.369 µM).
